Measurements from EP0908457B1, “3-(1,2-benzisothiazol- and isoxazol-5-Y1)-2,4(1H,3H)-pyrimidinedione or thione and 3-(1,2-benzisothiazol- and isoxazol-5-y1)-4(3H)-pyrimidinone or thione herbicidal agents” (BASF AKTIENGESELLSCHAFT, priority 1997, dated 1999).

Columns and labels:
[1] = test system: Oryza sativa, (L.) Tebonnet; test: Rice tolerance to post-transplant applications under flooded paddy conditions (Example 187), ORYSAT (Rice, Tebonnet); for herbicidal effect rating ORYSAT: meaning of each grade not given here
[2] = test system: Cyperus iria; test: Preemergence weed control under flooded paddy conditions, CYPIR (Rice Flatsedge); assay type: in vivo; conditions: flooded paddy; for herbicidal effect rating, CYPIR: meaning of each grade not given here
[3] = test system: Monochoria vaginalis, Presl.; test: Preemergence weed control under flooded paddy conditions, MOOVA (Monochoria); assay type: in vivo; conditions: flooded paddy; for herbicidal effect rating, MOOVA: meaning of each grade not given here
[4] = test system: Echinochloa oryzoides (Ard.) Fritsch.; test: Preemergence weed control under flooded paddy conditions, ECHORC (Watergrass (Calif.)); assay type: in vivo; conditions: flooded paddy; for herbicidal effect rating, ECHORC: meaning of each grade not given here
[5] = test system: Sagittaria pygmaea, L.; test: Preemergence weed control under flooded paddy conditions, SAGPY (Arrowhead (Pygmaea)); assay type: in vivo; conditions: flooded paddy; for herbicidal effect rating, SAGPY: meaning of each grade not given here
[6] = test system: Cyperus serotinus, Rottb.; test: Preemergence weed control under flooded paddy conditions, CYPSE (Flatsedge); assay type: in vivo; for herbicidal effect rating, CYPSE: meaning of each grade not given here
[7] = Rate 0.0320 kg/ha, rated three to four weeks after treatment
[8] = Rate 0.0620 kg/ha, rated three to four weeks after treatment
[9] = Rate 0.1250 kg/ha, rated three to four weeks after treatment
[10] = Rate 0.2500 kg/ha, rated three to four weeks after treatment
[11] = Rate 0.0320 kg/ha, preemergence weeds, rated three to four weeks after treatment
[12] = Rate 0.0620 kg/ha, preemergence weeds, rated three to four weeks after treatment
[13] = Rate 0.1250 kg/ha, preemergence weeds, rated three to four weeks after treatment
[14] = Rate 0.2500 kg/ha, preemergence weeds, rated three to four weeks after treatment
[15] = Rate 0.0320 kg/ha, preemergence, rated three to four weeks after treatment
[16] = Rate 0.0620 kg/ha, preemergence, rated three to four weeks after treatment
[17] = Rate 0.1250 kg/ha, preemergence, rated three to four weeks after treatment
[18] = Rate 0.2500 kg/ha, preemergence, rated three to four weeks after treatment
[19] = Rate 0.5000 kg/ha, preemergence, rated three to four weeks after treatment
[20] = 0.0320 kg/ha, preemergence, rated three to four weeks after treatment
[21] = 0.0620 kg/ha, preemergence, rated three to four weeks after treatment
[22] = 0.1250 kg/ha, preemergence, rated three to four weeks after treatment
[23] = 0.2500 kg/ha, preemergence, rated three to four weeks after treatment
[24] = Rate 0.0320 kg/ha, preemergence, rated 3-4 weeks after treatment
[25] = Rate 0.0620 kg/ha, preemergence, rated 3-4 weeks after treatment
[26] = Rate 0.1250 kg/ha, preemergence, rated 3-4 weeks after treatment
[27] = Rate 0.2500 kg/ha, preemergence, rated 3-4 weeks after treatment
[28] = Rate 0.5000 kg/ha, preemergence, rated 3-4 weeks after treatment

Structure (SMILES): Cn1c(C(F)(F)F)cc(=O)n(-c2ccc3snc(C(=O)O)c3c2)c1=O [Example 315, 1,2-Benzisothiazole-3-carboxylic acid, 5-[3,6-dihydro-3-methyl-2,6-dioxo-4-(trifluoromethyl)-1(2H)-pyrimidinyl]-]
- herbicidal effect rating ORYSAT [1, 7]: 0.0
- herbicidal effect rating ORYSAT [1, 8]: 0.0
- herbicidal effect rating ORYSAT [1, 9]: 0.0
- herbicidal effect rating ORYSAT [1, 10]: 2.0
- herbicidal effect rating, CYPIR [2, 11]: 0.0
- herbicidal effect rating, CYPIR [2, 12]: 0.0
- herbicidal effect rating, CYPIR [2, 13]: 5.0
- herbicidal effect rating, CYPIR [2, 14]: 9.0
- herbicidal effect rating, MOOVA [3, 11]: 9.0
- herbicidal effect rating, MOOVA [3, 12]: 9.0
- herbicidal effect rating, MOOVA [3, 13]: 9.0
- herbicidal effect rating, MOOVA [3, 14]: 9.0
- herbicidal effect rating, ECHORC [4, 11]: 0.0
- herbicidal effect rating, ECHORC [4, 12]: 0.0
- herbicidal effect rating, ECHORC [4, 13]: 0.0
- herbicidal effect rating, ECHORC [4, 14]: 3.0
- herbicidal effect rating, SAGPY [5, 11]: 0.0
- herbicidal effect rating, SAGPY [5, 12]: 0.0
- herbicidal effect rating, SAGPY [5, 13]: 3.0
- herbicidal effect rating, SAGPY [5, 14]: 4.0
- herbicidal effect rating, CYPSE [6, 11]: 0.0
- herbicidal effect rating, CYPSE [6, 12]: 0.0
- herbicidal effect rating, CYPSE [6, 13]: 3.0
- herbicidal effect rating, CYPSE [6, 14]: 3.0

Structure (SMILES): Cn1c(C(F)(F)F)cc(=O)n(-c2ccc3snc(-c4ccc(OCC(=O)OC(C)(C)C)cc4)c3c2)c1=O [Example 273, Acetic acid, {p-{5-[3,6-dihydro-3-methyl-2,6-dioxo-4-(trifluoromethyl)-1(2H)-pyrimidinyl]-1,2-benzisothiazol-3-yl}phenoxy}-, tert-butyl ester]
- ORYSAT herbicidal effect rating [1, 7]: 0.0
- ORYSAT herbicidal effect rating [1, 8]: 2.0
- ORYSAT herbicidal effect rating [1, 9]: 3.0
- ORYSAT herbicidal effect rating [1, 10]: 4.0
- ORYSAT herbicidal effect rating ([1]; Rate 0.5000 kg/ha, rated three to four weeks after treatment): 3.0
- CYPIR herbicidal effect rating [2, 15]: 6.0
- CYPIR herbicidal effect rating [2, 16]: 9.0
- CYPIR herbicidal effect rating [2, 17]: 9.0
- CYPIR herbicidal effect rating [2, 18]: 9.0
- CYPIR herbicidal effect rating [2, 19]: 4.0
- MOOVA herbicidal effect rating [3, 15]: 9.0
- MOOVA herbicidal effect rating [3, 16]: 9.0
- MOOVA herbicidal effect rating [3, 17]: 9.0
- MOOVA herbicidal effect rating [3, 18]: 9.0
- MOOVA herbicidal effect rating [3, 19]: 9.0
- ECHORC herbicidal effect rating [4, 15]: 3.9
- ECHORC herbicidal effect rating [4, 16]: 5.1
- ECHORC herbicidal effect rating [4, 17]: 6.0
- ECHORC herbicidal effect rating [4, 18]: 9.0
- ECHORC herbicidal effect rating [4, 19]: 9.0
- SAGPY herbicidal effect rating [5, 15]: 0.0
- SAGPY herbicidal effect rating [5, 16]: 0.0
- SAGPY herbicidal effect rating [5, 17]: 0.0
- SAGPY herbicidal effect rating [5, 18]: 6.0
- SAGPY herbicidal effect rating [5, 19]: 0.0
- CYPSE herbicidal effect rating [6, 15]: 0.0
- CYPSE herbicidal effect rating [6, 16]: 0.0
- CYPSE herbicidal effect rating [6, 18]: 7.0
- CYPSE herbicidal effect rating [6, 19]: 9.0

Structure (SMILES): CC(C)NS(=O)(=O)NC(=O)c1nsc2ccc(-n3c(=O)cc(C(F)(F)F)n(C)c3=O)cc12 [Example 508, 1,2-Benzisothiazole-3-carboxamide, 5-[3,6-dihydro-3-methyl-2,6-dioxo-4-(trifluoromethyl)-1(2H)-pyrimidinyl]-N-(isopropylsulfamoyl)-]
- ORYSAT herbicidal rating (rice tolerance) ([1]; 0.0320 kg/ha, rated three to four weeks after treatment): 0.0
- ORYSAT herbicidal rating (rice tolerance) ([1]; 0.0620 kg/ha, rated three to four weeks after treatment): 2.0
- ORYSAT herbicidal rating (rice tolerance) ([1]; 0.1250 kg/ha, rated three to four weeks after treatment): 5.0
- ORYSAT herbicidal rating (rice tolerance) ([1]; 0.2500 kg/ha, rated three to four weeks after treatment): 6.0
- CYPIR herbicidal rating [2, 20]: 6.0
- CYPIR herbicidal rating [2, 21]: 7.0
- CYPIR herbicidal rating [2, 22]: 7.0
- CYPIR herbicidal rating [2, 23]: 9.0
- MOOVA herbicidal rating [3, 20]: 9.0
- MOOVA herbicidal rating [3, 21]: 9.0
- MOOVA herbicidal rating [3, 22]: 9.0
- MOOVA herbicidal rating [3, 23]: 9.0
- ECHORC herbicidal rating [4, 20]: 2.0
- ECHORC herbicidal rating [4, 21]: 5.0
- ECHORC herbicidal rating [4, 22]: 6.0
- ECHORC herbicidal rating [4, 23]: 9.0
- SAGPY herbicidal rating [5, 20]: 5.0
- SAGPY herbicidal rating [5, 21]: 6.0
- SAGPY herbicidal rating [5, 22]: 9.0
- SAGPY herbicidal rating [5, 23]: 9.0
- CYPSE herbicidal rating [6, 20]: 0.0

Structure (SMILES): C[C@H](Br)[C@H](Br)c1nsc2ccc(-n3c(=O)cc(C(F)(F)F)n(C)c3=O)cc12 [Example 302, 2,4(1H,3H)-Pyrimidinedione, 3-[3-(1,2-dibromopropyl)-1,2-benzisothiazol-5-yl]-1-methyl-6-(trifluoromethyl)-, (1R,2S)-]
- herbicidal effect rating ORYSAT [1, 7]: 1.0
- herbicidal effect rating ORYSAT [1, 8]: 4.5
- herbicidal effect rating ORYSAT [1, 9]: 7.0
- herbicidal effect rating ORYSAT [1, 10]: 8.0
- herbicidal effect rating, CYPIR [2, 11]: 8.0
- herbicidal effect rating, CYPIR [2, 12]: 8.0
- herbicidal effect rating, CYPIR [2, 13]: 8.5
- herbicidal effect rating, CYPIR [2, 14]: 8.5
- herbicidal effect rating, MOOVA [3, 11]: 7.0
- herbicidal effect rating, MOOVA [3, 12]: 7.0
- herbicidal effect rating, MOOVA [3, 13]: 9.0
- herbicidal effect rating, MOOVA [3, 14]: 9.0
- herbicidal effect rating, ECHORC [4, 11]: 4.0
- herbicidal effect rating, ECHORC [4, 12]: 5.0
- herbicidal effect rating, ECHORC [4, 13]: 8.0
- herbicidal effect rating, ECHORC [4, 14]: 8.5
- herbicidal effect rating, SAGPY [5, 11]: 0.0
- herbicidal effect rating, SAGPY [5, 12]: 0.0
- herbicidal effect rating, SAGPY [5, 13]: 9.0
- herbicidal effect rating, SAGPY [5, 14]: 9.0
- herbicidal effect rating, CYPSE [6, 11]: 4.5
- herbicidal effect rating, CYPSE [6, 12]: 4.5
- herbicidal effect rating, CYPSE [6, 13]: 4.5
- herbicidal effect rating, CYPSE [6, 14]: 6.0

Structure (SMILES): COCCOC(=O)C(C)(C)Oc1ccc(C)cc1-c1nsc2ccc(-n3c(=O)cc(C(F)(F)F)n(C)c3=O)cc12 [Example 546, Propionic acid, 2-{{2-{5-[3,6-dihydro-3-methyl-2,6-dioxo-4-(trifluoromethyl)-1(2H)-pyrimidinyl]-1,2-benzisothiazol-3-yl}-p-tolyl}oxy}-2-methyl-, 2-methoxyethyl ester]
- herbicidal effect rating ORYSAT ([1]; Rate 0.0320 kg/ha, rated 3-4 weeks after treatment): 2.0
- herbicidal effect rating ORYSAT ([1]; Rate 0.0620 kg/ha, rated 3-4 weeks after treatment): 3.0
- herbicidal effect rating ORYSAT ([1]; Rate 0.1250 kg/ha, rated 3-4 weeks after treatment): 4.0
- herbicidal effect rating ORYSAT ([1]; Rate 0.2500 kg/ha, rated 3-4 weeks after treatment): 7.0
- herbicidal effect rating ORYSAT ([1]; Rate 0.5000 kg/ha, rated 3-4 weeks after treatment): 6.0
- herbicidal effect rating, CYPIR [2, 24]: 3.0
- herbicidal effect rating, CYPIR [2, 25]: 4.0
- herbicidal effect rating, CYPIR [2, 26]: 6.0
- herbicidal effect rating, CYPIR [2, 27]: 9.0
- herbicidal effect rating, CYPIR [2, 28]: 2.0
- herbicidal effect rating, MOOVA [3, 24]: 6.0
- herbicidal effect rating, MOOVA [3, 25]: 7.0
- herbicidal effect rating, MOOVA [3, 26]: 7.0
- herbicidal effect rating, MOOVA [3, 27]: 9.0
- herbicidal effect rating, MOOVA [3, 28]: 9.0
- herbicidal effect rating, ECHORC [4, 24]: 4.1
- herbicidal effect rating, ECHORC [4, 25]: 4.3
- herbicidal effect rating, ECHORC [4, 26]: 4.6
- herbicidal effect rating, ECHORC [4, 27]: 9.0
- herbicidal effect rating, ECHORC [4, 28]: 9.0
- herbicidal effect rating, SAGPY [5, 24]: 0.0
- herbicidal effect rating, SAGPY [5, 25]: 0.0
- herbicidal effect rating, SAGPY [5, 26]: 4.0
- herbicidal effect rating, SAGPY [5, 27]: 9.0
- herbicidal effect rating, SAGPY [5, 28]: 9.0
- herbicidal effect rating, CYPSE [6, 24]: 0.0
- herbicidal effect rating, CYPSE [6, 25]: 0.0
- herbicidal effect rating, CYPSE [6, 26]: 9.0
- herbicidal effect rating, CYPSE [6, 27]: 9.0
- herbicidal effect rating, CYPSE [6, 28]: 0.0
